Results from patent publication US11179394B2, “Method for treating cancer using a combination of Chk1 and ATR inhibitors” (priority 2014, dated 2021).

Legend:
HA1EB-GFP parental cells = test: Cell viability by resazurin staining; type: cell-based; conditions: 72 hours, VE-821 up to 5 μM, AZD7762 30 nM
BJ-hTERT parental cells = test: Cell viability by resazurin staining; type: cell-based; conditions: 72 hours, AZD7762 30 nM
Protocol: Referring to FIG. 2D, an isogenic cell pair was used to assess the impact of loss of p53 and RB on cell sensitivity to the combination of VE-821 and AZD7762 (BJ-hTERT parental cells vs BJ-SV40T cells expressing the Large Tumor Antigen which inactivates p53 and RB function). In addition, the impact of expression of the H-RAS oncogene was assessed in the BJ-SV40T cells transformed with activated H-RAS(G12V) (BJ RAS). Cells were treated with either VE-821 alone (at concentrations up to 5 μM), AZD7762 alone (30 nM) or the combination of VE-821 and AZD7762 for 72 hours.

[1] = tested on: H460 lung cancer cell line; conditions: AZD7762 25 mg/kg intraperitoneal, VE-822 60 mg/kg oral gavage; for survival: combination vs monotherapy P<0.01; for tumor size / tumor growth: combination vs monotherapy P<0.05
Protocol: (§2) In the case of the MX-1 model, 2 million cells in 50% matrigel were injected in nude mice and for the H460 model 5 million cells in PBS were injected in nude mice. After 8-9 days of implantation animals were divided into 4 groups of 5 animals based on tumor size; with mean tumor volume of 130 mm^3. […] Body weight and tumor volume were measured twice a week. Tumor volume was measured with caliper and shown as mean±S.E.M (length×width×width×0.52).

[2] = tested on: cMYC transformed cells, HA1EB-GFP-cMYC; test: Cell viability by resazurin staining; conditions: 72 hours, VE-821 up to 5 μM, AZD7762 30 nM
[3] = tested on: BJ-SV40T cells (p53 and RB inactivated); test: Cell viability by resazurin staining; conditions: 72 hours, VE-821 up to 5 μM, AZD7762 30 nM
Protocol: (§3) In addition, the impact of expression of the H-RAS oncogene was assessed in the BJ-SV40T cells transformed with activated H-RAS(G12V) (BJ RAS).

[4] = tested on: MX-1 breast cancer cell line; conditions: AZD7762 25 mg/kg intraperitoneal, VE-822 60 mg/kg oral gavage; for survival: combination P<0.05
Protocol: as §2

[5] = tested on: BJ RAS cells (BJ-SV40T transformed with activated H-RAS(G12V)); test: Cell viability by resazurin staining; conditions: 72 hours, VE-821 up to 5 μM, AZD7762 30 nM
Protocol: as §3

ATR = ATR (Homo sapiens, UniProt Q13535); conditions: 1 μM VE-821; cited from earlier work
[6] = tested on: DLD-1 cells expressing the inactive mutant form of Chk1 (S317A/-); test: Clonogenic survival assay; type: cell-based; conditions: Homo sapiens; DLD-1 Chk1 S317A/-; 1 μM VE-821; read-out: viable cells remaining
Protocol: (§1) 500 cells of U2OS, MCF-7, DLD-1, DLD-1 Chk-1^S317A/-, DLD-1 Chk-1^+/−, DLD-1 ATR^S/S and 1000 cells of VH-10 were plated on 10 cm plate. After 5 hr. of incubation (5% CO2 at 37° C.) vehicle (0.05% DMSO max) various concentration of ATR inhibitor VE-821 were directly added to the media containing plate and incubated for 72 hr. At the end of 72 hr. of incubation, vehicle and drug containing media was replaced with fresh media and further incubated for another 5-8 days before plates were fixed and stained with 4% methylene blue in MeOH and colonies were counted manually. Each data point represents a triplicate data set±SEM.

MCF-7 cancer cells = test: Clonogenic survival assay; type: cell-based; conditions: 1 μM VE-821, 72 hr, AZD7762 20 nM where combined
Protocol: as §1

U2OS cancer cells = test: Clonogenic survival assay; type: cell-based; conditions: 1 μM VE-821, 72 hr, AZD7762 20 nM where combined
Protocol: as §1

Parental DLD-1 cells = test: cells; type: cell-based; conditions: Homo sapiens, DLD-1, read-out: cell viability
Protocol: as §1

U2OS cells = test: Cleaved caspase-3 (apoptosis) with hydroxyurea; type: cell-based; conditions: 24 hr, hydroxyurea (2 mM) alone
Protocol: Referring to FIG. 5, the impact of Chk1 inhibition by AZD7762 on cell apoptosis from treatment with the ATR inhibitor VE-821 and a representative DNA damaging agent, hydroxyl urea (2 mM), was assessed by measuring levels of cleaved caspase-3, a widely used marker of apoptosis. U2OS cells were treated for 24 hr. with the DNA damaging agent hydroxyurea and varied doses of AZD7762 and/or VE-821. Cells were subsequently stained with anti-cleavage caspase 3 and β actin antibodies and confocal microscopy used to take and quantify images. Data are presented as % cells positive for cleaved capsae-3.

ATR, sequence (Q13535 whole entry): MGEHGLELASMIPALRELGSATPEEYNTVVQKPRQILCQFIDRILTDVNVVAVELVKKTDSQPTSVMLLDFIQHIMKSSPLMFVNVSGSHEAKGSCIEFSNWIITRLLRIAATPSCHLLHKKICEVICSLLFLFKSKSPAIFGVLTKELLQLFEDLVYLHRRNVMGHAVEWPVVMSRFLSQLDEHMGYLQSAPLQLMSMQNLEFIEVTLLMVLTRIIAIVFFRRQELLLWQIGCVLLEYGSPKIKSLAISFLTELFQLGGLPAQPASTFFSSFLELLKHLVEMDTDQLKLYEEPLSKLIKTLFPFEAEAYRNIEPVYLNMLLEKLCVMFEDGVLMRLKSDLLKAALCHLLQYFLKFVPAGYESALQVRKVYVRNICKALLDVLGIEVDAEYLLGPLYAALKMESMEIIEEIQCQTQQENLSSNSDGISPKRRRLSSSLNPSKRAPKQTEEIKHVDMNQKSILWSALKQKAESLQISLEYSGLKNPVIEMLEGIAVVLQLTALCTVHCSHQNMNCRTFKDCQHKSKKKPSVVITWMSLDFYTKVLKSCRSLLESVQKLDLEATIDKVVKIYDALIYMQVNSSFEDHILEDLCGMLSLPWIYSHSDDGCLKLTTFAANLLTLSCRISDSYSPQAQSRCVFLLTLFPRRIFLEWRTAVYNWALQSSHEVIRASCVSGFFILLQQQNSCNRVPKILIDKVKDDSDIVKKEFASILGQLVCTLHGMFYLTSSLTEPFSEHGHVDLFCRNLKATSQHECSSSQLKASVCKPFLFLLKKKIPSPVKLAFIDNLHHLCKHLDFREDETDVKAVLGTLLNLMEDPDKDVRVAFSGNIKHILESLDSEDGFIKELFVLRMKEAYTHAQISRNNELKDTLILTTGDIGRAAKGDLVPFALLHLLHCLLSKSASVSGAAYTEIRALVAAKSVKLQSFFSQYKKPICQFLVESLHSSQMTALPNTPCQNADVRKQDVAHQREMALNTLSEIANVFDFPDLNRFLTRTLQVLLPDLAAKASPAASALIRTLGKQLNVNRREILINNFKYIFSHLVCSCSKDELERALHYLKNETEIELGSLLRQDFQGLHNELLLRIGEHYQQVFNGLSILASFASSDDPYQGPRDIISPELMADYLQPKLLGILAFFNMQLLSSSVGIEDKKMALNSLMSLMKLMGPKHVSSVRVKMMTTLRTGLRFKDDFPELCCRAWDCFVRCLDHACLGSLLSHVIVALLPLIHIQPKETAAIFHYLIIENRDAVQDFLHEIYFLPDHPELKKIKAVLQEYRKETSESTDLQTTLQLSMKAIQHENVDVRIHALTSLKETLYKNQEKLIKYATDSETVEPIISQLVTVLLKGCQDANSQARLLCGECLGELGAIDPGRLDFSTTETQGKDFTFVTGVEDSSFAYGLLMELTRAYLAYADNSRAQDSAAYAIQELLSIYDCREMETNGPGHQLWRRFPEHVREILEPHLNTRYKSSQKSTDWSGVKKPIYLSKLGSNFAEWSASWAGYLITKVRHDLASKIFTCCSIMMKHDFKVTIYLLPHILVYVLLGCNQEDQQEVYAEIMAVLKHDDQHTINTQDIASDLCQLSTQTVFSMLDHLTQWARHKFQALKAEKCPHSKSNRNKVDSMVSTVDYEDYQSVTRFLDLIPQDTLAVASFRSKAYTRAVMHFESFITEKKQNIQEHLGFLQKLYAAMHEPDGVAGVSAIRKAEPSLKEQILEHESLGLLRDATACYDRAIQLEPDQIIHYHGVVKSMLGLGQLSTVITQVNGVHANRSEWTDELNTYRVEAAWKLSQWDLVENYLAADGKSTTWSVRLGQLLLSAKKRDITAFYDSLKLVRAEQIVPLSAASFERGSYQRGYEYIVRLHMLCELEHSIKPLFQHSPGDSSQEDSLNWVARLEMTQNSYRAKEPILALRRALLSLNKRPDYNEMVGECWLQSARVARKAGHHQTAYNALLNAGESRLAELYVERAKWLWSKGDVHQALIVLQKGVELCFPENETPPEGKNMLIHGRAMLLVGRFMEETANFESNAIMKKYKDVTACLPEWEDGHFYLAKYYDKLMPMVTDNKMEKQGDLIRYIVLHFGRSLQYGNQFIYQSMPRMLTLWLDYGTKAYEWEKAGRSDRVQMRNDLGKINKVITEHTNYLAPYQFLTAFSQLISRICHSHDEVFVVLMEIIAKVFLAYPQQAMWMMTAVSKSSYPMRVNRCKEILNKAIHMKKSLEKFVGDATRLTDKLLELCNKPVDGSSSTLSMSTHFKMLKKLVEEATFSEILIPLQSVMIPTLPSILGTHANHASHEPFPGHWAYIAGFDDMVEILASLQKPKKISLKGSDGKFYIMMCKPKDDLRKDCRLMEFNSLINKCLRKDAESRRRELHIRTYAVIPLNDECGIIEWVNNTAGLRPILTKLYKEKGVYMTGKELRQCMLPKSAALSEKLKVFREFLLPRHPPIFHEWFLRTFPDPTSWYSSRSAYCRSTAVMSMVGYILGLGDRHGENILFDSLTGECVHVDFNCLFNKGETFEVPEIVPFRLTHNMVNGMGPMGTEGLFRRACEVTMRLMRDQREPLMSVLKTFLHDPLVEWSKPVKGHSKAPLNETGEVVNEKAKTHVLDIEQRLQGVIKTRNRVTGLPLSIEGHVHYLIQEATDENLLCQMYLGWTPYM
ATR, sequence (Q8WXE1 whole entry partner): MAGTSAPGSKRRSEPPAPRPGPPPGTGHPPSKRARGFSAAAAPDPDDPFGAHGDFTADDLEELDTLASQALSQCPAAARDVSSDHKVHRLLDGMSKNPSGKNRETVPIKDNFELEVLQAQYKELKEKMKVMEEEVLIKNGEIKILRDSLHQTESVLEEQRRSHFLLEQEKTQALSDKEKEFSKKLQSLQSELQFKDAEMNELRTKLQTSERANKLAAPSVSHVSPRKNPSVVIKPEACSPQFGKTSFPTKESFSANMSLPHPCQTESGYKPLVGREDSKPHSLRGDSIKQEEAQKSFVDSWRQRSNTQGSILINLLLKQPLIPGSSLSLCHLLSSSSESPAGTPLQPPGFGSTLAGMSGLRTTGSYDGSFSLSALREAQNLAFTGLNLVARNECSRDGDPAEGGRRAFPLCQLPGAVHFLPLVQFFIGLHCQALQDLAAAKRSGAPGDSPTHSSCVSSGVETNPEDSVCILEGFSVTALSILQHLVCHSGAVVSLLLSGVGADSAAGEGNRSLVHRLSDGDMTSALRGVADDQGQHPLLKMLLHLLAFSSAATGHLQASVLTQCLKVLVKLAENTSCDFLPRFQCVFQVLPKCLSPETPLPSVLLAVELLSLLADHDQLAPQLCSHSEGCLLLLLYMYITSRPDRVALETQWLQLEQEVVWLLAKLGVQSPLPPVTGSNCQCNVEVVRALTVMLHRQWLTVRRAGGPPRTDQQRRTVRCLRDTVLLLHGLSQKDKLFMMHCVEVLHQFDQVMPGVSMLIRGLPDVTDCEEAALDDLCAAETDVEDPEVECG

SMILES	effect on viability (HA1EB-GFP parental cells)	effect on viability (BJ-hTERT parental cells)	survival [1]	tumor size / tumor growth [1]	viable cells remaining [2]	viable cells remaining [3]	tumor size / tumor growth [4]	survival [4]	viable cells remaining [5]	ATR activity inhibited (ATR)	viability at 1 µM [6] [%]	clonogenic survival (MCF-7 cancer cells)	clonogenic survival (U2OS cancer cells)	viability at 1 µM (Parental DLD-1 cells) [%]	cells positive for cleaved caspase-3 (U2OS cells) [%]
NC(=O)Nc1cc(-c2cccc(F)c2)sc1C(=O)N[C@H]1CCCNC1 [AZD7762, reference compound]	Neither VE-821 nor AZD7762 had a marked effect	did not have a marked effect	minimal impact	minimal impact	did not impact the viability	did not have a marked effect	reduced tumor growth	no impact	did not have a marked effect	–	–	–	–	–	–
CS(=O)(=O)c1ccc(-c2cnc(N)c(C(=O)Nc3ccccc3)n2)cc1 [VE-821]	Neither VE-821 nor AZD7762 had a marked effect	–	–	–	~40%	–	–	–	~60%	about 50%	< 3	10-20%	10-20%	~100	–
CNCc1ccc(-c2cc(-c3nc(-c4ccc(S(=O)(=O)C(C)C)cc4)cnc3N)on2)cc1 [VE-822]	–	–	minimal impact	minimal impact	–	–	minimal impact	minimal impact	–	–	–	–	–	–	–
NC(=O)NO [hydroxyurea]	–	–	–	–	–	–	–	–	–	–	–	–	–	–	< 0.5
